ChEMBL document CHEMBL3885861, “Open TG-GATES”

Species: Rattus norvegicus
Assay: Open TG-GATES - Regimen: Daily Repeat
Assay type: toxicity, organism-based, Sprague-Dawley
Set-up: regimen Daily Repeat, gender Male, age 6 weeks
Details: in vivo, po, route gavage; for gamma-GTP / ALP / ALT / AST / BUN / CRE / Ca / DBIL / GLC / IP / K / LDH / Na / PL / RALB / TBIL / TC / TG / TP: tissue Plasma; for APTT / Bas / Eos / Fbg / Hb / Ht / Lym / MCH / MCHC / MCV / Mono / Neu / PT / Plat / RBC / Ret / WBC: tissue Blood; for KIDNEY_L / KIDNEY_R / KIDNEY_TOTAL: tissue Kidney; for LIVER: tissue Liver
[1] = 10 mg/kg, 72 h, dose level Low, time 3 day
[2] = 10 mg/kg, […], dose level Low, time 7 day
[3] = 10 mg/kg, […], dose level Low, time 14 day
[4] = 10 mg/kg, […], dose level Low, time 28 day

## CSc1ccc2c(c1)N(CCC1CCCCN1C)c1ccccc1S2 (centres undefined) [THIORIDAZINE]
0 mg/kg, […], dose level Control, time 28 day
  gamma-GTP: 1.4 IU/L
[1]
  TERMINAL_BW: 239 g
  APTT: 16.3 s
  Bas: 0%
  Eos: 1%
  Fbg: 219.4 mg/dL
  Hb: 13.5 g/dL
  Ht: 40.6%
  Lym: 81%
  MCH: 21.2 pg
  MCHC: 33.3%
  MCV: 63.6 fL
  Mono: 5.8%
  Neu: 12.4%
  PT: 11.9 s
  Plat: 107.3 x10_4/uL
  RBC: 638.4 x10_4/ul
  Ret: 8.8%
  WBC: 136.6 x10_2/uL
  KIDNEY_L: 1.1 g
  KIDNEY_R: 1.1 g
  KIDNEY_TOTAL: 2.2 g
  LIVER: 12.5 g
  ALP: 797.8 IU/L
  ALT: 35.6 IU/L
  AST: 62.2 IU/L
  BUN: 17.2 mg/dL
  CRE: 0.5 mg/dL
  Ca: 11 mg/dL
  DBIL: 0.042 mg/dL
  GLC: 193.2 mg/dL
  IP: 9 mg/dL
  K: 4.7 meq/L
  LDH: 82 IU/L
  Na: 138.2 meq/L
  PL: 163 mg/dL
  RALB: 3.9 g/dL
  TBIL: 0.3 mg/dL
  TC: 81.8 mg/dL
  TG: 137 mg/dL
  TP: 5.9 g/dL
  gamma-GTP: 1.6 IU/L
[2]
  TERMINAL_BW: 268.9 g
  APTT: 16.8 s
  Bas: 0%
  Eos: 0.8%
  Fbg: 223 mg/dL
  Hb: 13.9 g/dL
  Ht: 41.4%
  Lym: 79.2%
  MCH: 20.6 pg
  MCHC: 33.5%
  MCV: 61.5 fL
  Mono: 7%
  Neu: 13.2%
  PT: 12.1 s
  Plat: 118.8 x10_4/uL
  RBC: 674.2 x10_4/ul
  Ret: 5.2%
  WBC: 127.5 x10_2/uL
  KIDNEY_L: 1.1 g
  KIDNEY_R: 1.1 g
  KIDNEY_TOTAL: 2.3 g
  LIVER: 13.2 g
  ALP: 792.4 IU/L
  ALT: 34 IU/L
  AST: 61 IU/L
  BUN: 18.4 mg/dL
  CRE: 0.5 mg/dL
  Ca: 11.1 mg/dL
  DBIL: 0 mg/dL
  GLC: 197.2 mg/dL
  IP: 8.3 mg/dL
  K: 4.8 meq/L
  LDH: 84 IU/L
  Na: 139.4 meq/L
  PL: 172.8 mg/dL
  RALB: 4 g/dL
  TBIL: 0.3 mg/dL
  TC: 88.4 mg/dL
  TG: 118.6 mg/dL
  TP: 6 g/dL
  gamma-GTP: 1.2 IU/L
[3]
  TERMINAL_BW: 333.8 g
  APTT: 17.3 s
  Bas: 0%
  Eos: 0.8%
  Fbg: 237.8 mg/dL
  Hb: 14.7 g/dL
  Ht: 43.8%
  Lym: 84.4%
  MCH: 20.8 pg
  MCHC: 33.6%
  MCV: 62.1 fL
  Mono: 5.8%
  Neu: 9%
  PT: 11.7 s
  Plat: 115 x10_4/uL
  RBC: 706.6 x10_4/ul
  Ret: 4.2%
  WBC: 167.8 x10_2/uL
  KIDNEY_L: 1.3 g
  KIDNEY_R: 1.4 g
  KIDNEY_TOTAL: 2.7 g
  LIVER: 15.4 g
  ALP: 779.6 IU/L
  ALT: 33.6 IU/L
  AST: 62.8 IU/L
  BUN: 20.4 mg/dL
  CRE: 0.6 mg/dL
  Ca: 10.9 mg/dL
  DBIL: 0.002 mg/dL
  GLC: 178.6 mg/dL
  IP: 7.8 mg/dL
  K: 5.2 meq/L
  LDH: 110.2 IU/L
  Na: 139.4 meq/L
  PL: 167.8 mg/dL
  RALB: 4.1 g/dL
  TBIL: 0.3 mg/dL
  TC: 81.2 mg/dL
  TG: 158 mg/dL
  TP: 6.3 g/dL
  gamma-GTP: 1.2 IU/L
[4]
  TERMINAL_BW: 403.9 g
  APTT: 17.6 s
  Bas: 0%
  Eos: 1%
  Fbg: 233 mg/dL
  Hb: 15.4 g/dL
  Ht: 45.5%
  Lym: 83.6%
  MCH: 19.8 pg
  MCHC: 33.9%
  MCV: 58.3 fL
  Mono: 6.2%
  Neu: 9.6%
  PT: 12.1 s
  Plat: 121.4 x10_4/uL
  RBC: 780.6 x10_4/ul
  Ret: 2.6%
  WBC: 150 x10_2/uL
  KIDNEY_L: 1.5 g
  KIDNEY_R: 1.5 g
  KIDNEY_TOTAL: 3 g
  LIVER: 17.2 g
  ALP: 564 IU/L
  ALT: 32.4 IU/L
  AST: 63.4 IU/L
  BUN: 21.2 mg/dL
  CRE: 0.6 mg/dL
  Ca: 10.7 mg/dL
  DBIL: 0 mg/dL
  GLC: 180.8 mg/dL
  IP: 7.3 mg/dL
  K: 4.3 meq/L
  LDH: 131.8 IU/L
  Na: 140.4 meq/L
  PL: 162.4 mg/dL
  RALB: 4.2 g/dL
  TBIL: 0.2 mg/dL
  TC: 74 mg/dL
  TG: 177.2 mg/dL
  TP: 6.4 g/dL
